Data on 5 molecules can be found in patent US20250003940A1, “BIOSENSOR, BIOSENSOR COMPONENTS, AND USE THEREOF” (VICTORIA LINK LIMITED, priority 2021, published 2025).

Broadly, the Hill coefficient is a measure of the steepness of the concentration-response curve. In general, kcat refers to the number of substrate molecules converted per active site and unit of time at saturation.

Where two headings read alike, the source gives them in different places.

The nature of data set [1]: GS activity assay coupled with PK/LDH (NADH oxidation, A340). The data set is classed as biochemical. Particulars: 37° C., decrease of absorbance at 340 nm. Here is the method:
FIG. 3: GS activity assay. The assay was adapted from Shapiro et. al. The reaction mixture included 30 mM imidazole, 100 mM Na-glutamate, 8.5 mM adenosine 5′-triphosphate (ATP), 1 mM phosphoenolpyruvate (PEP), 60 mM magnesium chloride (MgCl2), 20 mM potassium chloride (KCl), 45 mM ammonium chloride (NH4Cl), 0.25 mM (3-nicotinamide adenine dinucleotide (NADH), 28 units pyruvate kinase/40 units L-lactic dehydrogenase (PK/LDH). The reactions were performed at 37° C. and rates were measured by the decrease of absorbance at 340 nm.
For preliminary experiments, glutamine synthetase from Escherichia coli (E. coli) was successfully expressed, purified and tested for activity. This assay took advantage of the biosynthetic reaction of GS (which produces ADP) coupled with lactate dehydrogenase and pyruvate kinase to oxidise NADH (Shapiro & Stadtman, 1970).
The reaction mixture included 30 mM imidazole, 100 mM Na-glutamate, 8.5 mM adenosine 5′-triphosphate (ATP), 1 mM phosphoenolpyruvate (PEP), 60 mM magnesium chloride (MgCl2), 20 mM potassium chloride (KCl), 45 mM ammonium chloride (NH4Cl), 0.25 mM 0-nicotinamide adenine dinucleotide (NADH), 28 units pyruvate kinase/40 units L-lactic dehydrogenase (PK/LDH). The reactions were performed at 37° C. and rates were measured by the decrease of absorbance at 340 nm.
The soluble GS enzymes were tested. […]

Data set [2] can be described thus: Activity assay of purified arginine deiminase. The data set is classed as biochemical. Here is the method:
We attempted to express and purify the three ADI enzymes in E. coli. After numerous attempts, we were unable to express the M. hominis or P. putida enzymes in a soluble form. Each protein was expressed solely in inclusion bodies, under all conditions tested (FIG. 14A). Purification from inclusion bodies and refolding were also attempted, without success. In contrast, we were able to express and purify the P. aeruginosa ADI enzyme (average yield=40 mg per litre of bacterial culture).

Data set [3] concerns the target T1, Helicobacter pylori glutamine synthetase (HpGS), SEQ ID NO: 2 (Helicobacter pylori, UniProt P94845).
T1 construct: BpsA-coupled assay
T1 sequence (P94845 1-481): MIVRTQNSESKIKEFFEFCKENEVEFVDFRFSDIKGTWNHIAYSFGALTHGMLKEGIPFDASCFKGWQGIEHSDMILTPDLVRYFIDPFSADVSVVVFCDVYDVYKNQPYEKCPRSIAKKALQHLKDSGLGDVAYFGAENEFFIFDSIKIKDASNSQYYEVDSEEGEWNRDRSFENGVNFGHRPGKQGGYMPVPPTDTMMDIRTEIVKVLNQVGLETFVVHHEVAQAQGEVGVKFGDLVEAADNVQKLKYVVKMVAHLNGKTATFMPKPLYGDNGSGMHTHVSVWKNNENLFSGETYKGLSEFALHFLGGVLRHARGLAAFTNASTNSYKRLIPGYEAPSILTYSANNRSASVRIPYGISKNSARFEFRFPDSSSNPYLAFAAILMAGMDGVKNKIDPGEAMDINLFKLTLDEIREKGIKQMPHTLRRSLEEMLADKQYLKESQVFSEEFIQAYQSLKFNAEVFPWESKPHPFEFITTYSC
The data set can be described thus: GS-BpsA coupled assay kinetics of HpGS for glutamate and ammonium (A590, indigoidine). The class given is biochemical. The note with it: 37° C., coupled with BpsA. Here is the method:
(§1) FIG. 6A: Sigmoidal kinetics data obtained when the GS from Helicobacter pylori (HpGS) is assayed in the presence of various concentrations of its substrate, glutamate. The concentration of GS and BpsA is 3 μM and 6 μM respectively. An optimised condition for the GS-BpsA assay was used. A range of glutamate concentrations (0-900 μM) was used in the assay. Rates were measured through the increase in absorbance at 590 nm at 37° C. Data are the mean values of three replicates and error bars indicate the standard error of the mean.
(§2) FIG. 6B: Sigmoidal kinetics data obtained when HpGS is assayed in the presence of various concentrations of its substrate, ammonium. The concentration of GS and BpsA is 3 μM and 6 μM respectively. An optimised condition for the GS-BpsA assay was used. A range of 0-900 μM NH4Cl was used in the assay. Rates were measured through the increase in absorbance at 590 nm at 37° C. Data are the mean values of three replicates and error bars indicate the standard error of the mean.
(§3) FIG. 21A: Amino acid sequence for Helicobacter pylori glutamine synthetase enzyme. SEQ ID NO: 2. The His-tag sequence used for the protein fusion is also shown.
(§4) Optimised ATP/pH and Mg^2+ conditions were utilised with varying concentrations of KCl (FIG. 5). A concentration of 10 mM KCl was chosen to be optimal based on this experiment. The final optimised reaction mixture for the GS-BpsA assay was determined to be 100 mM Tris Base pH 11.4, 15 mM ATP, 20 mM MgCl2, and 10 mM KCl.
(§5) Using optimised assay conditions for the GS-BpsA coupled assay, kinetics data for HpGS were collected for its substrates glutamate and ammonium. For these experiments, the concentrations of GS and BpsA were 3 μM and 6 μM respectively. Optimised conditions for the GS-BpsA assay were used. A range of 0-1000 μM glutamate concentration and 1000 μM NH4Cl was used in the assay. Rates were measured through the increase in absorbance for 5 minutes at 590 nm and 37° C.
(§6) GS enzymes have been previously found to display non-Michaelis-Menten, sigmoidal kinetics (Murray et al., 2013). As expected, the data were fit better by the Hill equation for cooperative enzymes than by the Michaelis-Menten equation (FIGS. 6A-6B). The Hill coefficient indicates the estimate of the number of active sites that are acting cooperatively, which has a value of approximately 2 for both substrates.

Substrate in data set [4]: N=C(N)NCCC[C@H](N)C(=O)O
The data set can be described thus: Michaelis-Menten kinetics of RcArgZ with arginine (glutamate dehydrogenase coupled assay, A340). The class given is biochemical, Rhodospirillum centenum. Particulars: other: 37° C., 0-3000 μM arginine, decrease in absorbance at 340 nm. How it is done:
FIG. 17: Michaelis-Menten kinetics of RcArgZ with arginine. A range of 0-3000 μM arginine concentration was used in the assay. Rates were measured through the decrease in absorbance at 340 nm at 37° C. Data are the mean values of three replicates and error bars indicate the standard error of the mean.
FIG. 22A: Amino acid sequence for Rhodospirillum centenum arginine dihydrolase enzyme. SEQ ID NO: 3. This sequence is derived from the sequence listed as accession number B6IRA8 in the UniProt database, but with the deletion of amino acid residues 2 to 18 from the UniProt sequence. These residues were deleted because they were predicted to encode a disordered region in the polypeptide. The His-tag sequence used for the protein fusion is also shown.
For this reason, we ordered the gene for this isolated domain from a commercial gene synthesis company (Twist Bioscience). […]
RcArgZ activity was quantified in vitro by coupling it with glutamate dehydrogenase (GDH) in a spectrophotometric assay. […]
Therefore, a decrease in absorbance at 340 nm is directly relative to glutamate production, and because GDH is in excess in the reaction, it is directly relative to RcArgZ activity to produce ammonium from arginine.
Activity data for RcArgZ were collected across a range of arginine concentrations. […] Rates were measured through the decrease in absorbance at 340 nm at 37° C.

Substrate in data set [5]: N[C@@H](CCC(=O)O)C(=O)O
The data set can be described thus: GS-BpsA coupled assay kinetics of HpGS for glutamate and ammonium (A590, indigoidine). The data set is classed as biochemical, Helicobacter pylori. Particulars: coupled with BpsA, pH 11.4; for K0.5: Hill equation. Here is the method:
as §1, §2, §3, §4, §5, §6

Setting [6] is: other: Biological Replicate 1, 37° C.
[7] abbreviates: other: Biological Replicate 2, 37° C.

On to “EcGS: glutamine synthetase from Escherichia coli, SEQ ID NO: 14”, for which the “GS activity (ATP hydrolysis) in PK/LDH assay” value in data set [1] was “only slightly active”.
As to “P. aeruginosa ADI: Pseudomonas aeruginosa arginine deiminase enzyme expressed and purified from E. coli”, the “activity of purified arginine deiminase” value in data set [2] was “did not have any activity”.
On to `N` [Ammonium, ammonium], for which the “kcat (estimated from Vmax)” value in data set [3] was 0.8 ± 0.03 s⁻¹. In data set [3] (Hill equation), this molecule came in with a Hill coefficient of 2.0. For the same molecule, the Km is roughly 100 µM in data set [3] (read-out: Khalf (concentration of the substrate at the half-maximal velocity)); 96 µM in data set [3] (Biological Replicate 1, Hill equation, read-out: Khalf (ammonium)); 97 µM in data set [3] (Biological Replicate 2, Hill equation, read-out: Khalf (ammonium)). Moreover, the “kcat (ammonium varied)” value in data set [3] (Biological Replicate 1) and in data set [3] (Biological Replicate 2) was 0.78 s⁻¹ throughout.

B1: Rhodospirillum centenum arginine dihydrolase (RcArgZ), truncated: deletion of residues 2 to 18 of UniProt B6IRA8, SEQ ID NO: 3 (Rhodospirillum centenum SW) (protein)
chain: APPRIIMCAPDHFEVSYTINPWMRPDEWEARRSELSGAAAAGWSALRRRLQQLGAAVELVAPRSGLPDLVFTANAAVVLDGKALVARFRHPERRPEEPHFRRFFDGLAARGLLDEVHDMPPGVCLEGAGDCVHDAGRGVFFLGHGFRSDREAAAVVADLFGEEVEPLELVDPRFYHMDTALCPLSGGEVLYVPGAFSAEGRGRLRERIGADRLIEVPEADAVRLAANAVNLGRDVVLAEASDDLKAALAERGYSVHEVPIRSFGLSGGSAFCLTLRLDRRSNRRSGRPVGGTGPGAAADAPGQPALLD
notes: synthetic gene (Twist Bioscience); GDH-coupled assay
With B1, in data set [4], the Km came to 360 ± 30 µM and the catalytic constant (kcat) came to 10.4 s⁻¹.

B2: Helicobacter pylori glutamine synthetase (HpGS), SEQ ID NO: 2 (Helicobacter pylori 26695) (protein)
chain: MIVRTQNSESKIKEFFEFCKENEVEFVDFRFSDIKGTWNHIAYSFGALTHGMLKEGIPFDASCFKGWQGIEHSDMILTPDLVRYFIDPFSADVSVVVFCDVYDVYKNQPYEKCPRSIAKKALQHLKDSGLGDVAYFGAENEFFIFDSIKIKDASNSQYYEVDSEEGEWNRDRSFENGVNFGHRPGKQGGYMPVPPTDTMMDIRTEIVKVLNQVGLETFVVHHEVAQAQGEVGVKFGDLVEAADNVQKLKYVVKMVAHLNGKTATFMPKPLYGDNGSGMHTHVSVWKNNENLFSGETYKGLSEFALHFLGGVLRHARGLAAFTNASTNSYKRLIPGYEAPSILTYSANNRSASVRIPYGISKNSARFEFRFPDSSSNPYLAFAAILMAGMDGVKNKIDPGEAMDINLFKLTLDEIREKGIKQMPHTLRRSLEEMLADKQYLKESQVFSEEFIQAYQSLKFNAEVFPWESKPHPFEFITTYSC
notes: BpsA-coupled assay
For B2, in data set [5] (setting [6]), the K0.5 amounted to 350 µM and the catalytic constant (kcat) is 0.28 s⁻¹. For the same molecule, in data set [5] (setting [7]), the K0.5 stood at 350 µM and the kcat worked out at 0.45 s⁻¹.
